A short description of data set [1]: Solubility in aqueous buffers of varying pH. In kind it is physicochemical. The settings on record: for solubility: ambient temperature, compound 1 as acetate salt. The method, then: The solubility of compound 1 (acetate salt) was measured in aqueous buffers of varying pH to assess this compound's suitability for formulation in an aqueous carrier for administration by injection (e.g., intravenous or intramuscular injection).

Data set [2] in a line: Pharmacokinetics in beagle dogs, intravenous. In kind it is in vivo. To be noted: for CI / half-life / Vd: 1.4 mg/kg intravenous slow bolus, mean ± SEM, n = 4 beagle dogs; for half-life / Vd: dog; for half-life: read-out: T ½ (converted); for Vd: read-out: Vz. The method, then: The test articles were administered to beagle dogs weighing approximately 6-10 kg. Each test article was dosed at 1.4 mg/kg in aqueous saline (with or without 0.5% Tween) over course of 1-10 minutes. […] The dogs were fasted at least 12 hours prior to each dosing and offered food after the 4-hour blood sample was taken; water was withheld for 1 hour prior to and 4 hours following each dosing event. The dose for each animal was based on its most recent body weight. The test article was injected intravenously via a catheter placed in the cephalic vein as a slow bolus.
Blood was collected via the jugular vein. All blood samples (˜1 mL each) were collected into K3EDTA tubes. Following blood collection, the samples were immediately inverted several times and were held on wet ice pending centrifugation. The samples were centrifuged within ˜30 minutes of collection under refrigeration (˜5° C. for ˜10 minutes at ˜2000 g) to obtain plasma. The plasma was frozen immediately on dry ice after separation. The plasma samples were stored at approximately −70° C. until analysis.
Plasma (100 μL) was precipitated with 400 μL of 0.1% formic acid in acetonitrile containing the internal standard (100 ng/mL pneumocandin). The samples were then capped and vortexed for about 30 seconds followed by centrifugation at 14,000 rpm at room temperature for 10 minutes. Following centrifugation 200 μL of supernatant was transferred to plastic autosampler vials containing 200 μL of 0.1% formic acid in water and vortexed. Samples were then analyzed by LCMSMS.
All pharmacokinetic calculations were performed using WinNonlin version 4.1 (Pharsight Corp) by noncompartmental analysis.

Data set [3] is described as follows: Solubility in non-aqueous solvents. Type of data set: physicochemical. The settings on record: organic solvent or mixture, compound 1 as acetate salt. The method, then:
The solubility of compound 1 (acetate salt) was also measured in non-aqueous solvents to assess this compound's suitability for formulation in non-aqueous carriers.

The test system of a further data set is C. albicans R303. The data set can be described thus: mouse candidiasis infection model, IP administration, kidney fungal burden. Type of data set: in vivo. The settings on record: for overall performance in reducing C. albicans CFUs in the kidneys of the mice: conclusion over all runs. The gist of the method: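 Female CD-1 mice rendered neutropenic with IP cyclophosphamide 150 mg/kg at days −4 and −1. Mice infected IV via tail vein with C. albicans R303, then given test compounds IP 2 h post-infection. Kidney fungal burden determined as CFU by plate counts; values are means of four mice.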

[4] abbreviates: beagle dogs, 1.4 mg/kg intravenous.
Setting [5] is: Candida albicans, R303, ip, 24 h, Fifth run, IP 0.5 mg/kg, read-out: Difference from 24-h control.
The mark [6] stands for this setting: Candida albicans, R303, ip, 24 h, Fifth run, IP 1.5 mg/kg, read-out: Difference from 24-h control.
Setting [7] is: Candida albicans, R303, ip, 24 h, Fifth run, IP 4.5 mg/kg, read-out: Difference from 24-h control.
The mark [8] stands for this setting: Fifth run, IP 0.5 mg/kg, kidneys 24 h after infection.
Setting [9] is: Fifth run, IP 1.5 mg/kg, kidneys 24 h after infection.
Setting [10] is: Fifth run, IP 4.5 mg/kg, kidneys 24 h after infection.

Consider 2 compounds from patent publication US9217014B2, “Antifungal agents and uses thereof” (Cidara Therapeutics, Inc., priority 2011, dated 2015).

Like-named read-outs stand apart in the source and are kept apart here.

In the case of `CCCCCOc1ccc(-c2ccc(-c3ccc(C(=O)N[C@H]4C[C@@H](O)C(OCC[N+](C)(C)C)NC(=O)C5[C@@H](O)[C@@H](C)CN5C(=O)C([C@@H](C)O)NC(=O)C([C@H](O)[C@@H](O)c5ccc(O)cc5)NC(=O)C5C[C@@H](O)CN5C(=O)C([C@@H](C)O)NC4=O)cc3)cc2)cc1` (stereo partly drawn) [compound 1], the solubility – broadly, the dissolved amount per volume that the medium holds – was greater than 15 mg/mL in data set [1] (aqueous buffer, pH 3 (0.01M formate buffer)); greater than 15 mg/mL in data set [1] (aqueous buffer, pH 4.6 (0.1M acetate buffer)); greater than 15 mg/mL in data set [1] (aqueous buffer, pH 5.6 (0.1M acetate buffer)); 0.05 mg/mL in data set [1] (aqueous buffer, pH 7.4 (0.1M phosphate buffer)); greater than 15 mg/mL in data set [1] (aqueous buffer, pH 8.5 (0.01M TRIS buffer)); 4.6 mg/mL in data set [1] (saline or isotonic, 0.9% saline). Besides, the solubility in data set [1] (simulated gastric fluid, pH 1 (0.1M HCl)) was greater than 15 mg/mL; in data set [3] (Ethanol (EtOH)) it was greater than 13.7 mg/mL; in data set [3] (Glycerol), greater than 19.4 mg/mL; in data set [3] (PEG400), greater than 34.1 mg/mL; in data set [3] (Propylene glycol(PG)), greater than 18.4 mg/mL. In addition, in data set [1] (over a broad pH range), the “aqueous solubility compared with anidulafungin (in words)” value is recorded as “dramatically greater aqueous solubility than anidulafungin”. For the same compound, the CI in data set [2] was 0.01806 ± 0.00146 L/h/kg. In addition, in data set [2] (setting [4]), the “circulating half-life (in words)” value is “surprisingly long circulating half-life”. For the same compound, in data set [2] (setting [4]), the “volume of distribution (in words)” value is “surprisingly large volume of distribution”. Further, the half-life in data set [2] (beagle, in vivo, iv, 1.4 mg/kg) is 53.1 ± 3.93 h. Further, the Vd in data set [2] (in vivo) was 1.36 ± 0.0619 L/kg. Further, the log reduction at 0.5 mg/kg with C. albicans R303 (setting [5]) is 1.47; with C. albicans R303 (Candida albicans, R303, ip, 24 h, Second run, IP 0.5 mg/kg, read-out: Difference from 24-h control) it was 2.08. Also, the log reduction at 1.5 mg/kg turned out to be 3.58 in the data set on C. albicans R303 (setting [6]) and 3.05 with C. albicans R303 (Candida albicans, R303, ip, 24 h, Second run, IP 1.5 mg/kg, read-out: Difference from 24-h control). In addition, the log reduction at 4.5 mg/kg in the data set with C. albicans R303 (setting [7]) came to 4.81; with C. albicans R303 (Candida albicans, R303, ip, 24 h, Second run, IP 4.5 mg/kg, read-out: Difference from 24-h control) it was 3.9. Moreover, the log reduction at 5 mg/kg with C. albicans R303 (Candida albicans, R303, ip, 24 h, First run, IP 5 mg/kg, read-out: Difference from 24-h control) came out at 4.8. The “Mean log10 CFU/kidneys (±SEM)” value in the data set on C. albicans R303 (setting [8]) was found to be 3.67 ± 0.07 log10 CFU/kidneys; in the data set with C. albicans R303 (setting [9]), 1.56 ± 0.15 log10 CFU/kidneys; in the data set on C. albicans R303 (setting [10]), 0.33 ± 0.33 log10 CFU/kidneys; in the data set on C. albicans R303 (Second run, IP 0.5 mg/kg, kidneys 24 h after infection), 2.80 ± 0.11 log10 CFU/kidneys; in the data set on C. albicans R303 (Second run, IP 1.5 mg/kg, kidneys 24 h after infection), 1.83 ± 0.14 log10 CFU/kidneys; in the data set on C. albicans R303 (Second run, IP 4.5 mg/kg, kidneys 24 h after infection) it was 0.98 ± 0.33 log10 CFU/kidneys. Also, the “Mean log10 CFU/kidneys (±SD)” value in the data set on C. albicans R303 (First run, IP 5 mg/kg, neutropenic mice, kidneys 24 h after infection) stood at 0.40 ± 0.80 log10 CFU/kidneys. For the same compound, the “overall performance in reducing C. albicans CFUs in the kidneys of the mice” value in the data set with C. albicans R303 is listed as “performed strongly”.
In the case of `CCCCCOc1ccc(-c2ccc(-c3ccc(C(=O)N[C@H]4C[C@@H](O)C(NCC[N+](C)(C)C)NC(=O)C5[C@@H](O)[C@@H](C)CN5C(=O)C([C@@H](C)O)NC(=O)C([C@H](O)[C@@H](O)c5ccc(O)cc5)NC(=O)C5C[C@@H](O)CC5C(=O)C([C@@H](C)O)NC4=O)cc3)cc2)cc1` (stereo partly drawn) [compound 16], in data set [2], the CI came to 0.0219 ± 0.00084 L/h/kg. Besides, the half-life in data set [2] (plasma) was 27.6 ± 1.11 h. Moreover, the Vd in data set [2] (plasma) is 0.874 ± 0.0639 L/kg. For the same compound, the log reduction at 0.5 mg/kg with C. albicans R303 (setting [5]) worked out at 3.22. The log reduction at 1.5 mg/kg in the data set on C. albicans R303 (setting [6]) was 3.74. In addition, the log reduction at 4.5 mg/kg in the data set with C. albicans R303 (setting [7]) is 4.08. Further, the results for the “Mean log10 CFU/kidneys (±SEM)” value with C. albicans R303 (setting [8]), with C. albicans R303 (setting [9]) and in the data set on C. albicans R303 (setting [10]) were 1.91 ± 0.34 log10 CFU/kidneys, 1.39 ± 0.16 log10 CFU/kidneys and 1.05 ± 0.36 log10 CFU/kidneys, respectively. Also, the “overall performance in reducing C. albicans CFUs in the kidneys of the mice” value with C. albicans R303 was “performed strongly”.
